Reference: patent publication US12559492B2, “BRAF degraders” (C4 Therapeutics, Inc., priority 2020, dated 2026)

Molecular target: BRAF^V600E protein (Homo sapiens, UniProt P15056, V600E)
Assay: HiBiT cellular BRAF V600E degradation assay
Assay type: cell-based
Conditions: 24 h incubation; for DC50: A375.10 cells (HiBiT tag knocked in at N-terminal of BRAF V600E), concentration at which 50% of total cellular BRAF V600E is degraded; for Emax: read-out: HiBit 24 h Emax
[1] = A375.10 cells, Emax = amount of residual protein remaining in the cell after compound treatment

Sequence of BRAF^V600E protein (P15056 whole entry V600E): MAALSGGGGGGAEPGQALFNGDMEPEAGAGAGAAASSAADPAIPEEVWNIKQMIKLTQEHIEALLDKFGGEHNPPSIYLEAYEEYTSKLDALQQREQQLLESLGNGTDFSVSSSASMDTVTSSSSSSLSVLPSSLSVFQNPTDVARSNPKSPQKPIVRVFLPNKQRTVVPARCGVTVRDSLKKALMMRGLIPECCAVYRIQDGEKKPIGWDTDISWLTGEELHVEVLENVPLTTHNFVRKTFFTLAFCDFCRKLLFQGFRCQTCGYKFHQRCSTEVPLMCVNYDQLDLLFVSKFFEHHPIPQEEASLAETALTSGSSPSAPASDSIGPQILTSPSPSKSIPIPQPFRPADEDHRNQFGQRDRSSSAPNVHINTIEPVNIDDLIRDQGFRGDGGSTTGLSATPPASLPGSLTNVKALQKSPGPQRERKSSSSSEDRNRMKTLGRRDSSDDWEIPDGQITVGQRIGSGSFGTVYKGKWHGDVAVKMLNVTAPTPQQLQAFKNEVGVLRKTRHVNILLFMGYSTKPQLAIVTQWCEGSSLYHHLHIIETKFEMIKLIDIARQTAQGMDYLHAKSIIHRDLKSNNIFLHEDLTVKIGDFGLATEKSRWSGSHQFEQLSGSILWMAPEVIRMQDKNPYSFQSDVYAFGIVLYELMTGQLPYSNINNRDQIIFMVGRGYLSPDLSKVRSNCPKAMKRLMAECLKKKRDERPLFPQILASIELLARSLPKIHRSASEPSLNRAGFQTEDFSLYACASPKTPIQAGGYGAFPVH

| Structure (SMILES) | DC50 | Emax [1] | HiBit 24 h Emax [1] |
| --- | --- | --- | --- |
| CCN(C)S(=O)(=O)Nc1cccc(C(=O)c2c[nH]c3ncc(-c4ccc(N5CCN(C(=O)CN6CCC(c7ccc(NC8CCC(=O)NC8=O)cc7)CC6)CC5)nc4)cc23)c1Br (centres unmarked) [Example A114, 3-[2-Bromo-3-[[ethyl(methyl)sulfamoyl]amino]benzoyl]-5-[6-[4-[2-[4-[4-[(2,6-dioxopiperidin-3-yl)amino]phenyl]piperidin-1-yl]acetyl]piperazin-1-yl]pyridin-3-yl]-1H-pyrrolo[2,3-b]pyridine] | 8.83 nM | 7.68% | – |
| O=C1CCC(Oc2ccc(C3CCN(CC(=O)N4CC5(C4)CN(c4ccc(-c6cnc7[nH]cc(C(=O)c8c(F)ccc(NS(=O)(=O)N9CC[C@@H](F)C9)c8F)c7c6)cn4)C5)CC3)cc2)C(=O)N1 (stereo partly drawn) [Example A115, (3R)—N-[3-[5-[6-[2-[2-[4-[4-(2,6-dioxopiperidin-3-yl)oxyphenyl]piperidin-1-yl]acetyl]-2,6-diazaspiro[3.3]heptan-6-yl]pyridin-3-yl]-1H-pyrrolo[2,3-b]pyridine-3-carbonyl]-2,4-difluorophenyl]-3-fluoropyrrolidine-1-sulfonamide] | 204 nM | 15% | – |
| O=C1CCC(Oc2ccc(C3CCN(CC(=O)N4CC5(C4)CN(c4ccc(-c6cnc7[nH]cc(C(=O)c8c(F)ccc(NS(=O)(=O)N9CCCC9)c8F)c7c6)cc4)C5)CC3)cc2)C(=O)N1 (centres unmarked) [Example A116, N-[3-[5-[4-[2-[2-[4-[4-(2,6-Dioxopiperidin-3-yl)oxyphenyl]piperidin-1-yl]acetyl]-2,6-diazaspiro[3.3]heptan-6-yl]phenyl]-1H-pyrrolo[2,3-b]pyridine-3-carbonyl]-2,4-difluorophenyl]pyrrolidine-1-sulfonamide] | 26 nM | 8% | – |
| O=C(c1c(F)ccc(NS(=O)(=O)N2CCCC2)c1F)c1c[nH]c2ncc(-c3ccc(N4CC5(CN(C(=O)CN6CCC(c7ccc(NC89CC(C8)C(=O)NC9=O)cc7)CC6)C5)C4)cc3)cc12 [Example A117, N-[3-[5-[4-[2-[2-[4-[4-[(2,4-Dioxo-3-azabicyclo[3.1.1]heptan-1-yl)amino]phenyl]piperidin-1-yl]acetyl]-2,6-diazaspiro[3.3]heptan-6-yl]phenyl]-1H-pyrrolo[2,3-b]pyridine-3-carbonyl]-2,4-difluorophenyl]pyrrolidine-1-sulfonamide] | 192 nM | 24% | – |
| O=C1CCC(c2ccc(C3CCN(CC(=O)N4CC5(C4)CN(c4ncc(-c6cnc7[nH]cc(C(=O)c8c(F)ccc(NS(=O)(=O)N9CCCC9)c8F)c7c6)cn4)C5)CC3)cc2)C(=O)N1 (centres unmarked) [Example A118, N-[3-[5-[2-[2-[2-[4-[4-(2,6-Dioxopiperidin-3-yl)phenyl]piperidin-1-yl]acetyl]-2,6-diazaspiro[3.3]heptan-6-yl]pyrimidin-5-yl]-1H-pyrrolo[2,3-b]pyridine-3-carbonyl]-2,4-difluorophenyl]pyrrolidine-1-sulfonamide] | 29 nM | 11% | – |
| O=C1CCC(Oc2ccc(C3CCN(CC(=O)N4CC5(C4)CN(c4ncc(-c6cnc7[nH]cc(C(=O)c8c(F)ccc(NS(=O)(=O)N9CCCC9)c8F)c7c6)cn4)C5)CC3)cc2)C(=O)N1 (centres unmarked) [Example A119, N-[3-[5-[2-[2-[2-[4-[4-(2,6-Dioxopiperidin-3-yl)oxyphenyl]piperidin-1-yl]acetyl]-2,6-diazaspiro[3.3]heptan-6-yl]pyrimidin-5-yl]-1H-pyrrolo[2,3-b]pyridine-3-carbonyl]-2,4-difluorophenyl]pyrrolidine-1-sulfonamide] | 47 nM | 12% | – |
| O=C1CCC(Nc2ccc(C3CCN(CC(=O)N4CC5(C4)CN(c4ncc(-c6cnc7[nH]cc(C(=O)c8c(F)ccc(NS(=O)(=O)N9CCCC9)c8F)c7c6)cn4)C5)CC3)cc2)C(=O)N1 (centres unmarked) [Example A120, N-[3-[5-[2-[2-[2-[4-[4-[(2,6-Dioxopiperidin-3-yl)amino]phenyl]piperidin-1-yl]acetyl]-2,6-diazaspiro[3.3]heptan-6-yl]pyrimidin-5-yl]-1H-pyrrolo[2,3-b]pyridine-3-carbonyl]-2,4-difluorophenyl]pyrrolidine-1-sulfonamide] | 8 nM | 8% | – |
| CCN(C)S(=O)(=O)Nc1ccc(F)c(C(=O)c2c[nH]c3ncc(-c4ccc(N5CCN(C(=O)CN6CCC(c7ccc(O[C@H]8CCC(=O)NC8=O)cc7)CC6)CC5)nc4)cc23)c1F [Example A121, 5-[6-[4-[2-[4-[4-[(3S)-2,6-Dioxopiperidin-3-yl]oxyphenyl]piperidin-1-yl]acetyl]piperazin-1-yl]pyridin-3-yl]-3-[3-[[ethyl(methyl)sulfamoyl]amino]-2,6-difluorobenzoyl]-1H-pyrrolo[2,3-b]pyridine] | 12 nM | 8% | – |
| CCN(C)S(=O)(=O)Nc1ccc(F)c(C(=O)c2c[nH]c3ncc(-c4ccc(N5CCN(C(=O)CN6CCC(c7ccc(O[C@@H]8CCC(=O)NC8=O)cc7)CC6)CC5)nc4)cc23)c1F [Example A122, 5-[6-[4-[2-[4-[4-[(3R)-2,6-Dioxopiperidin-3-yl]oxyphenyl]piperidin-1-yl]acetyl]piperazin-1-yl]pyridin-3-yl]-3-[3-[[ethyl(methyl)sulfamoyl]amino]-2,6-difluorobenzoyl]-1H-pyrrolo[2,3-b]pyridine] | 32 nM | 9% | – |
| CCN(C)S(=O)(=O)Nc1ccc(F)c(C(=O)c2c[nH]c3ncc(-c4cnc(N5CCN(C(=O)NC6CCN(c7ccc(NC8CCC(=O)NC8=O)cc7F)CC6)CC5)nc4)cc23)c1F.O=C(O)C(F)(F)F (centres unmarked) [Example A123, N-[1-[4-[(2,6-Dioxopiperidin-3-yl)amino]-2-fluorophenyl]piperidin-4-yl]-4-[5-[3-[3-[[ethyl(methyl)sulfamoyl]amino]-2,6-difluorobenzoyl]-1H-pyrrolo[2,3-b]pyridin-5-yl]pyrimidin-2-yl]piperazine-1-carboxamide; 2,2,2-trifluoroacetic acid] | 10 nM | – | 8% |
